Measured values: patent US12083185B2, “Small polymeric carriers for delivery of agents” (University of Pittsburgh—Of the Commonwealth System of …, priority 2018, dated 2024)

How the values were obtained:
[1] = tested on: PANC02 cells; experiment: MTT cytotoxicity assay in PANC02 cells; type: cell-based, murine; conditions: 96 h
Experimental: MTT assay. The combinational effect of PTX and GEM as well as the cytotoxicity of blank and drug-loaded micelles were investigated by MTT assay using murine pancreatic carcinoma cell lines PANC02 and H7 cells. Cells were seeded into a 96-well plate at a density of 5000 cells/well and incubated in 100 μL of Dulbecco's Modified Eagle medium (DMEM) containing 10% FBS for 24 h. Cells were treated with various concentrations of free PTX, GEM or micelles solution for 96 h. Then, 20 μL of MTT solution (5 mg/mL) were added to each well and the cells were incubated for another 4 h. After removing the medium, 100 μL of DMSO were added into each well to dissolve MTT formazan crystals. The optical density was measured using a microplate reader and the cell viability was calculated with untreated cells as a control.

[2] = tested on: CDA; experiment: CDA expression in PANC02 cells by western blot; type: cell-based, murine; conditions: vs control group
Source text: As described above, CDA is overexpressed in pancreatic cancer, which mediates the metabolism of cytidine analogue drugs, such as gemcitabine of GEM, leading to the resistance to treatment with these drugs. Thus, reducing the CDA expression provides a new therapeutic window for pancreatic cancer. We examined the CDA expression in PANC02 cells treated with various formulations by western blot.

Nc1ccn([C@@H]2O[C@H](CO)[C@@H](O)C2(F)F)c(=O)n1 [free GEM, gemcitabine]
Cytotoxicity (cell killing effect, in words) [1]: concentration-dependent cell killing effect
CDA expression [2]: not altered
